# In patent US20140308317A1, “Polymeric Compounds And Methods Of Making And Using The Same” (CELLCEUTIX CORPORATION, priority 2012, published 2014):
# Columns and labels:
# E. Coli ATCC 25922 = experiment: Minimum Inhibitory Concentration (MIC), modified microbroth dilution; assay type: cell-based; details: Escherichia coli, ATCC25922; E. coli (25922); overnight incubation (18 hours); read-out: MIC50 E. coli
# [1] = tested on: Staphylococcus aureus ATCC 27660; experiment: as above; assay type: cell-based; details: Staphylococcus aureus, ATCC27660; S. aureus (27660); overnight incubation (18 hours); read-out: MIC50 S. aureus
# [2] = tested on: Klebsiella pneumoniae ATCC 13883; experiment: as above; assay type: cell-based; details: Klebsiella pneumoniae, ATCC13883; K. pneumoniae (13883); overnight incubation (18 hours); read-out: MIC50 K. Pnuemnoiae
# [3] = tested on: Pseudomonas aeruginosa ATCC 10145; experiment: as above; assay type: cell-based; details: Pseudomonas aeruginosa, ATCC10145; P. aeruginosa (10145); overnight incubation (18 hours); read-out: MIC50 P. Aeruginosa
# [4] = tested on: Enterococcus faecalis ATCC 29212; experiment: as above; assay type: cell-based; details: Enterococcus faecalis, ATCC29212; E. faecalis (29212); overnight incubation (18 hours); read-out: MIC50 E. faecalis
# [5] = Cytotoxicity colorimetric (tetrazolium) assay; assay type: cell-based, human; details: human, HepG2 cells (HB-8065), HepG2 cells; one hour with compound in serum-free media
# Experimental: (§1) Cytotoxicity of the compounds was evaluated in a colorimetric assay using a transformed human liver cell line (HepG2, HB-8065) and an embryonic mouse cell line (NIH/3T3 cells, CRL-1658). This assay measures the bioreduction of a novel tetrazolium compound to a soluble formazan product by viable cells. HepG2 cells were seeded in 96 well plates at 2×10^4 cells/well in MEM medium with 10% fetal bovine serum (FBS) 24 hours prior to use. NIH/3T3 cells were seeded in 96 well plates at 2×10^4 cells/well in DMEM medium with 10% bovine calf serum (BCS) 24 hours prior to use. Cell monolayers were rinsed in serum-free media and incubated for one hour with compounds in serum-free media. After incubation, the media is replaced with serum supplemented media and live cells were measured using the Cell Titer 96 Aqueous […] Assay kit (Promega, Madison, Wis.). EC50 values were determined using a four parameter logistic equation: Y=Bottom+(Top-Bottom)/(1+10̂((LogEC50−X)*HillSlope)).
# (§2) Actual results from a representative cytotoxicity assay are shown below in Table 2. Data is expressed as EC50 in μg/mL.
# [6] = Cytotoxicity colorimetric (tetrazolium) assay; assay type: cell-based, mouse; details: mouse, NIH/3T3 cells (CRL-1658), NIH/3T3 cells; one hour with compound in serum-free media
# Experimental: as §1, §2
Compound,MIC50 (E. Coli ATCC 25922) [mg/L],MIC50 [1] [mg/L],MIC50 [2] [mg/L],MIC50 [3] [mg/L],MIC50 [4] [mg/L],EC50 at 1 h [5] [mg/L],EC50 at 1 h [6] [mg/L]
NCCCOc1cc(OCCCN)cc(-c2ccc3c(c2)C(=O)c2cccc(-c4cc(OCCCN)cc(OCCCN)c4)c2CC3)c1 [Compound 155],> 50,1.56,> 50,25,> 50,330,177
N=C(N)NCCc1cc(C#Cc2cccc(C#Cc3cc(CCNC(=N)N)cc(CCNC(=N)N)c3)c2)cc(CCNC(=N)N)c1 [Compound 189],1.56,3.9 to 7.8,1.56,6.25,6.25,256,131
N=C(N)NCCc1cc(C#Cc2cc(C#Cc3cc(CCNC(=N)N)cc(CCNC(=N)N)c3)c(F)cc2F)cc(CCNC(=N)N)c1 [Compound 193],1.56,0.39,1.56,6.25,1.56,178,62.4
O=C(c1cc(C(=O)N2CCNCC2)cc(-c2ccc3sc4ccc(-c5cc(C(=O)N6CCNCC6)cc(C(=O)N6CCNCC6)c5)cc4c3c2)c1)N1CCNCC1 [Compound 170],> 100,> 100,> 100,> 100,> 100,> 1000,436
N=C(N)NCCCOc1cc(OCCCNC(=N)N)cc(-c2ccc3sc4ccc(-c5cc(OCCCNC(=N)N)cc(OCCCNC(=N)N)c5)cc4c3c2)c1 [Compound 172],0.78,0.049,0.78,6.25,0.78,35.7,41.4

# The next lines start with results.
MIC50 (E. Coli ATCC 25922) [mg/L],MIC50 [1] [mg/L],MIC50 [2] [mg/L],MIC50 [3] [mg/L],MIC50 [4] [mg/L],Compound,EC50 at 1 h [5] [mg/L],EC50 at 1 h [6] [mg/L]
25,25,50,> 50,> 50,NCCc1cc(CCN)cc(-c2cccc(-c3cc(CCN)cc(CCN)c3)c2)c1 [Compound 115],> 1160,1130
3.13,0.195,6.25,6.25,6.25,NCCCOc1cc(OCCCN)cc(-c2cccc(-c3cccc(-c4cc(OCCCN)cc(OCCCN)c4)c3)c2)c1 [Compound 144],448,320
3.13,1.56,3.13,25,6.25,N=C(N)NCCCc1cccc(-c2ccc3c4ccc(-c5cccc(CCCNC(=N)N)c5)cc4n(CCCNC(=N)N)c3c2)c1 [Compound 158],100,131
3.13,0.39,6.25,6.25,1.56,NCCCOc1cc(OCCCN)cc(-c2ccc(C(F)(F)c3ccc(-c4cc(OCCCN)cc(OCCCN)c4)cc3)cc2)c1 [Compound 166],137,84
6.25,6.25,25,25,25,N=C(N)NCCc1cc(CCNC(=N)N)cc(-c2cccc(-c3cc(CCNC(=N)N)cc(CCNC(=N)N)c3)c2)c1 [Compound 116],974,676
12.5,12.5,25,25,12.5,NCCc1cccc(-c2coc(-c3cccc(-c4nc(-c5cccc(CCN)c5)co4)c3)n2)c1 [Compound 132],50.1,23.5
> 50,25,50,50,50,NCCc1cc(CCN)cc(-c2csc(-c3cccc(-c4nccs4)c3)n2)c1 [Compound 136],4.12,250
12.5,3.13,> 50,12.5,12.5,N=C(N)NCCc1cc(CCNC(=N)N)cc(-c2csc(-c3cccc(-c4nc(-c5cc(CCNC(=N)N)cc(CCNC(=N)N)c5)cs4)c3)n2)c1 [Compound 137],55.6,26.6
